Paper PMC10673995, “Discovery of a novel cardiac-specific myosin modulator using artificial intelligence-based virtual screening” (Nature Communications, 2023)
Values joined by “and” are separate entries in the source; they are usually repeats but may differ in a detail not shown here. Identical values can stand only once.

Test system: isolated Langendorff-perfused rat hearts
Assay: Langendorff-perfused rat hearts, haemodynamic parameters
Design: key to LVSP, individual hearts / LVEDP, individual hearts: pressure in mmHg; Max (Figure 5c): unit not given here
Details: for Max (Figure 5c): one column per heart; for LVSP representative trace, ON: during perfusion with compound
Protocol: Next, we tested for the functional effects of F10 in isolated Langendorff-perfused rat hearts. Hearts were initially stabilized in modified Krebs-Henseleit (KH) solution for about 25–30 min and subsequently perfused with KH solution containing 20 μmol L^−1 F10 for 5 mins to reach a new steady state.
Rat hearts were Langendorff-perfused as described previously. Briefly, Wistar rats (Rattus norvegicus, male, 200–250 g, 7 weeks old) were anesthetized by injection of 0.9 mL sodium pentobarbitone 20% (w/v). […] The aorta was cannulated and secured with sutures (Mersilk 3‐0; Ethicon, Somerville, NJ, USA). Hearts were perfused at a constant perfusion pressure of 70 ± 2 mmHg using a peristaltic pump (Gilson Minipuls 4, Middleton, WI, USA) and a feedback control system (STH Pump Controller; AD Instruments, Oxford, UK). […] A fluid‐filled balloon, attached to a pressure transducer, was inserted into the left ventricle and inflated to give an end‐diastolic pressure between 3 and 8 mmHg. Left ventricular pressure (LVP), perfusion pressure, coronary flow and arterial and venous oxygen tensions were recorded using a PowerLab recorder and LabChart 8.0 software (ADInstruments). Functional parameters were averaged for ∼80 cardiac cycles at 5 min intervals.

[1] = 20 μmol L^−1 F10 or 1 μmol L^−1 Mavacamten
[2] = Time 11 min, during perfusion with 20 μmol L^−1 F10 or 1 μmol L^-1 Mavacamten
[3] = Time 12 min, during perfusion with 20 μmol L^−1 F10 or 1 μmol L^-1 Mavacamten
[4] = Time 13 min, during perfusion with 20 μmol L^−1 F10 or 1 μmol L^-1 Mavacamten
[5] = Time 14 min, during perfusion with 20 μmol L^−1 F10 or 1 μmol L^-1 Mavacamten
[6] = Time 15 min, during perfusion with 20 μmol L^−1 F10 or 1 μmol L^-1 Mavacamten

## CC(C)n1c(=O)cc(N[C@@H](C)c2ccccc2)[nH]c1=O [Mavacamten]
[1]
  effect on coronary perfusion / coronary flow: without affecting
  effect on heart rate: without affecting
  effect on left ventricular end-diastolic pressure (LVEDP): did not affect
Time 0 min
  Max (Figure 5c): 3876.58 and 5238.56 and 5331.08 and 5274.63
Time 1 min
  Max (Figure 5c): 3763.48 and 5575.44 and 5372.46 and 4664.37
Time 2 min
  Max (Figure 5c): 3604.67 and 5570.63 and 5457.56 and 4849.22
Time 3 min
  Max (Figure 5c): 3616.7 and 5958.05 and 5555.1 and 4920.12
Time 4 min
  Max (Figure 5c): 3720.17 and 5852.17 and 5485.6 and 4634
Time 5 min
  Max (Figure 5c): 3611.89 and 6003.77 and 5528.57 and 4575.4
Time 6 min
  Max (Figure 5c): 3669.64 and 6398.4 and 5572.15 and 4575.4
Time 7 min
  Max (Figure 5c): 3638.35 and 5690.95 and 5454.91 and 4575.4
Time 8 min
  Max (Figure 5c): 3568.57 and 5926.76 and 5613.04 and 4575.4
Time 9 min
  Max (Figure 5c): 3638.35 and 6073.55 and 6702.43 and 4575.4
Time 10 min
  Max (Figure 5c): 3558.95 and 6376.75 and 5920.41 and 4694.75
[2]
  LVEDP, individual hearts: 1 mmHg (2×) and 2 mmHg (2×) and 3 mmHg
  LVSP, individual hearts: 91 and 157 and 150 and 205 and 152
Time 11 min
  Max (Figure 5c): 3462.69 and 5852.17 and 5171.55 and 4904.93
[3]
  LVEDP, individual hearts: 0 and 1 (2×) and 2 and 3
  LVSP, individual hearts: 71 and 113 and 134 and 163 and 147
Time 12 min
  Max (Figure 5c): 2779.3 and 4057.05 and 4519.31 and 4773.25
[4]
  LVEDP, individual hearts: 0 and 1 (2×) and 3 and 5
  LVSP, individual hearts: 60 and 95 and 115 and 137 and 135
Time 13 min
  Max (Figure 5c): 2415.94 and 3070.46 and 3716.1 and 3709.72
[5]
  LVEDP, individual hearts: 0 and 1 (2×) and 2 and 5
  LVSP, individual hearts: 51 and 81 and 104 and 115 and 105
Time 14 min
  Max (Figure 5c): 2076.65 and 2695.08 and 3441.74 and 3481.82
[6]
  LVEDP, individual hearts: 0 and 1 (2×) and 2 and 7
  LVSP, individual hearts: 45 and 71 and 97 and 99 and 100
Time 15 min
  Max (Figure 5c): 1876.93 and 2447.23 and 3260.21 and 3233.66
Time 16 min, after washout
  LVEDP, individual hearts: 0 and 1 (2×) and 3 and 5
  LVSP, individual hearts: 44 and 65 and 100 and 90 and 98
Time 17 min, after washout
  LVEDP, individual hearts: 0 and 1 (2×) and 3 and 2
  LVSP, individual hearts: 49 and 71 and 103 and 101 and 98
Time 18 min, after washout
  LVEDP, individual hearts: 1 mmHg (4×) and 3 mmHg
  LVSP, individual hearts: 52 and 78 and 106 and 103 and 96
Time 19 min, after washout
  LVEDP, individual hearts: 1 mmHg (4×) and 2 mmHg
  LVSP, individual hearts: 55 and 83 and 109 (2×) and 98
Time 20 min, after washout
  LVEDP, individual hearts: 1 mmHg (3×) and 2 mmHg (2×)
  LVSP, individual hearts: 58 and 87 and 114 (2×) and 98
Time 20 min
  Max (Figure 5c): 2218.63 and 2954.96 and 3682.2 and 4327.58
Time 21 min, after washout
  LVEDP, individual hearts: 1 mmHg (3×) and 2 mmHg (2×)
  LVSP, individual hearts: 60 and 101 (2×) and 118 (2×)
Time 21 min
  Max (Figure 5c): 2317.29 and 3027.15 and 3768.27 and 4469.39
Time 22 min, after washout
  LVEDP, individual hearts: 1 mmHg (4×) and 0 mmHg
  LVSP, individual hearts: 63 and 96 and 122 and 121 and 125
Time 22 min
  Max (Figure 5c): 2358.19 and 3503.6 and 3945.22 and 4568.14
Time 23 min, after washout
  LVEDP, individual hearts: 1 mmHg (2×) and 0 mmHg and 2 mmHg and 3 mmHg
  LVSP, individual hearts: 66 and 99 and 125 and 126 and 103
Time 23 min
  Max (Figure 5c): 2526.64 and 3729.79 and 4137.98 and 4461.79
Time 24 min, after washout
  LVEDP, individual hearts: 1 mmHg (4×) and 0 mmHg
  LVSP, individual hearts: 67 and 106 and 126 and 130 and 104
Time 24 min
  Max (Figure 5c): 2654.17 and 3905.46 and 4295.47 and 4963.17
Time 25 min, after washout
  LVEDP, individual hearts: 1 and 0 (2×) and 3 and 2
  LVSP, individual hearts: 67 and 105 and 127 and 133 and 110
Time 25 min
  Max (Figure 5c): 2752.83 and 3729.79 and 4394.02 and 5097.38
After washout, t 0 s
  LVSP representative trace, OFF: 97.9459 mmHg
After washout, t 10 s
  LVSP representative trace, OFF: 98.66 mmHg
After washout, t 20 s
  LVSP representative trace, OFF: 99.4941 mmHg
After washout, t 30 s
  LVSP representative trace, OFF: 99.8652 mmHg
After washout, t 40 s
  LVSP representative trace, OFF: 99.9074 mmHg
After washout, t 50 s
  LVSP representative trace, OFF: 100.799 mmHg
After washout, t 60 s
  LVSP representative trace, OFF: 101.94 mmHg
After washout, t 70 s
  LVSP representative trace, OFF: 102.076 mmHg
After washout, t 80 s
  LVSP representative trace, OFF: 102.473 mmHg
After washout, t 90 s
  LVSP representative trace, OFF: 103.301 mmHg
After washout, t 100 s
  LVSP representative trace, OFF: 104.178 mmHg
After washout, t 110 s
  LVSP representative trace, OFF: 104.015 mmHg
After washout, t 120 s
  LVSP representative trace, OFF: 104.172 mmHg
After washout, t 130 s
  LVSP representative trace, OFF: 104.333 mmHg
After washout, t 140 s
  LVSP representative trace, OFF: 104.863 mmHg
After washout, t 150 s
  LVSP representative trace, OFF: 105.62 mmHg
After washout, t 160 s
  LVSP representative trace, OFF: 106.146 mmHg
After washout, t 170 s
  LVSP representative trace, OFF: 107.035 mmHg
After washout, t 180 s
  LVSP representative trace, OFF: 107.188 mmHg
After washout, t 190 s
  LVSP representative trace, OFF: 108.073 mmHg
After washout, t 200 s
  LVSP representative trace, OFF: 108.759 mmHg
After washout, t 210 s
  LVSP representative trace, OFF: 109.171 mmHg
After washout, t 220 s
  LVSP representative trace, OFF: 109.899 mmHg
After washout, t 230 s
  LVSP representative trace, OFF: 110.383 mmHg
After washout, t 240 s
  LVSP representative trace, OFF: 111.699 mmHg
After washout, t 250 s
  LVSP representative trace, OFF: 111.591 mmHg
After washout, t 260 s
  LVSP representative trace, OFF: 112.354 mmHg
After washout, t 270 s
  LVSP representative trace, OFF: 113.909 mmHg
After washout, t 280 s
  LVSP representative trace, OFF: 115.189 mmHg
After washout, t 290 s
  LVSP representative trace, OFF: 115.643 mmHg
After washout, t 300 s
  LVSP representative trace, OFF: 115.694 mmHg
After washout, t 310 s
  LVSP representative trace, OFF: 117.014 mmHg
After washout, t 320 s
  LVSP representative trace, OFF: 117.329 mmHg
After washout, t 330 s
  LVSP representative trace, OFF: 117.56 mmHg
After washout, t 340 s
  LVSP representative trace, OFF: 118.377 mmHg
After washout, t 350 s
  LVSP representative trace, OFF: 118.795 mmHg
After washout, t 360 s
  LVSP representative trace, OFF: 118.884 mmHg
After washout, t 370 s
  LVSP representative trace, OFF: 120.043 mmHg
After washout, t 380 s
  LVSP representative trace, OFF: 121.007 mmHg
After washout, t 390 s
  LVSP representative trace, OFF: 121.543 mmHg
After washout, t 400 s
  LVSP representative trace, OFF: 122.385 mmHg
T 0 s
  LVSP representative trace, ON: 185.674 mmHg
T 10 s
  LVSP representative trace, ON: 179.044 mmHg
T 20 s
  LVSP representative trace, ON: 172.645 mmHg
T 30 s
  LVSP representative trace, ON: 172.645 mmHg
T 40 s
  LVSP representative trace, ON: 172.645 mmHg
T 50 s
  LVSP representative trace, ON: 163.036 mmHg
T 60 s
  LVSP representative trace, ON: 160.436 mmHg
T 70 s
  LVSP representative trace, ON: 155.482 mmHg
T 80 s
  LVSP representative trace, ON: 149.519 mmHg
T 90 s
  LVSP representative trace, ON: 144.889 mmHg
T 100 s
  LVSP representative trace, ON: 139.74 mmHg
T 110 s
  LVSP representative trace, ON: 137.111 mmHg
T 120 s
  LVSP representative trace, ON: 131.856 mmHg
T 130 s
  LVSP representative trace, ON: 128.177 mmHg
T 140 s
  LVSP representative trace, ON: 123.963 mmHg
T 150 s
  LVSP representative trace, ON: 121.031 mmHg
T 160 s
  LVSP representative trace, ON: 117.5 mmHg
T 170 s
  LVSP representative trace, ON: 114.951 mmHg
T 180 s
  LVSP representative trace, ON: 110.93 mmHg
T 190 s
  LVSP representative trace, ON: 108.804 mmHg
T 200 s
  LVSP representative trace, ON: 106.216 mmHg
T 210 s
  LVSP representative trace, ON: 103.076 mmHg
T 220 s
  LVSP representative trace, ON: 101.63 mmHg
T 230 s
  LVSP representative trace, ON: 99.0368 mmHg
T 240 s
  LVSP representative trace, ON: 96.0294 mmHg
T 250 s
  LVSP representative trace, ON: 94.9632 mmHg
T 260 s
  LVSP representative trace, ON: 93.4811 mmHg
T 270 s
  LVSP representative trace, ON: 90.0331 mmHg
T 280 s
  LVSP representative trace, ON: 88.9689 mmHg
